According to the NIST ThermoML archive (doi:10.1016/j.jct.2004.09.009):

Assays:
[1] = Liquid; for mass density: 298.15 K, 101.33 kPa, Vibrating tube method; for vapor or sublimation pressure / Normal boiling temperature: Ebulliometric method (Recirculating still)
[2] = xn = mol fraction of the nth substance listed; conditions: 101.3 kPa, Liquid

CC1CCCCC1 [methylcyclohexane]
[1]
Conditions	Normal boiling temperature [°C]	mass density [kg/m3]
–	100.92	764.98

[1]
Conditions	vapor or sublimation pressure [kPa]
352.46 K	53.32
356.26 K	59.98
359.62 K	66.64
362.83 K	73.31
365.81 K	79.97
368.47 K	86.64
370.99 K	93.3
371.98 K	95.97
373.08 K	98.63
374.07 K	101.3
374.95 K	103.97
375.86 K	106.63
378.04 K	113.3
380.12 K	119.96
382.12 K	126.63
384.05 K	133.29
385.89 K	139.95
387.59 K	146.62
389.36 K	153.28
391.04 K	159.95
392.8 K	166.61
394.38 K	173.28
395.87 K	179.94
397.33 K	186.61
398.76 K	193.27
400.12 K	199.93
401.45 K	206.6
402.8 K	213.26
404.1 K	219.93
405.35 K	226.59
406.56 K	233.26
407.66 K	239.92
408.9 K	246.59
409.98 K	253.25

CC(C)O [propan-2-ol]
[1]
Conditions	Normal boiling temperature [°C]	mass density [kg/m3]
–	82.46	780.87

[1]
Conditions	vapor or sublimation pressure [kPa]
345.46 K	66.64
347.71 K	73.31
349.79 K	79.97
351.72 K	86.64
353.54 K	93.3
354.01 K	95.04
355.25 K	99.97
355.61 K	101.3
356.27 K	103.97
356.9 K	106.63
358.45 K	113.3
359.91 K	119.96
361.29 K	126.63
362.65 K	133.29
363.94 K	139.95
365.2 K	146.62
366.38 K	153.28
367.56 K	159.95
368.65 K	166.61
369.76 K	173.28
371.81 K	186.61
372.8 K	193.27
373.76 K	199.93
374.69 K	206.6
375.57 K	213.26
376.46 K	219.93
377.29 K	226.59
378.13 K	233.26
378.93 K	239.92
379.71 K	246.59
380.45 K	253.25
381.17 K	259.91
381.89 K	266.58
382.8 K	273.24
383.48 K	279.91
384.11 K	286.57
384.79 K	293.24
385.42 K	299.9

CCC(C)O (stereo not drawn) [butan-2-ol]
[1]
Conditions	Normal boiling temperature [°C]	mass density [kg/m3]
–	99.19	802.4

[1]
Conditions	vapor or sublimation pressure [kPa]
355.98 K	53.32
358.8 K	59.98
361.41 K	66.64
363.82 K	73.31
366.02 K	79.97
368.13 K	86.64
370.09 K	93.3
370.83 K	95.97
371.54 K	98.63
372.34 K	101.3
373.09 K	103.97
373.79 K	106.63
375.46 K	113.3
377.04 K	119.96
378.57 K	126.63
380.02 K	133.29
381.42 K	139.95
382.76 K	146.62
384.06 K	153.28
385.31 K	159.95
386.52 K	166.61
387.69 K	173.28
388.83 K	179.94
389.94 K	186.61
391 K	193.27
392.05 K	199.93
393.07 K	206.6
394.07 K	213.26
395.06 K	219.93
396.01 K	226.59
396.94 K	233.26
397.86 K	239.92
398.76 K	246.59
399.64 K	253.25
400.48 K	259.91
401.34 K	266.58
402.19 K	273.24
402.98 K	279.91
403.77 K	286.57
404.56 K	293.24
405.32 K	299.9

CCOC(=O)OCC [diethyl carbonate] + CC1CCCCC1
mass density [kg/m3], [2]
Conditions	293.15 K	298.15 K	303.15 K	308.15 K	313.15 K
x1 = 0.0473	777.44	773.05	768.64	764.22	759.78
x1 = 0.0978	786.43	781.97	777.5	773	768.48
x1 = 0.1985	804.96	800.36	795.73	791.09	786.42
x1 = 0.2968	823.73	818.99	814.23	809.44	804.6
x1 = 0.3924	842.56	837.7	832.8	827.88	822.9
x1 = 0.4993	864.26	859.23	854.18	849.14	844.04
x1 = 0.5999	885.33	880.2	875.04	869.85	864.64
x1 = 0.6985	906.48	901.24	895.95	890.65	885.31
x1 = 0.7988	928.64	923.28	917.88	912.46	907.02
x1 = 0.8996	951.53	946.06	940.54	935.01	929.44
x1 = 0.9509	963.41	957.86	952.29	946.7	941.08
x1 = 1	974.83	969.24	963.61	957.96	952.29

CCOC(=O)OCC [diethyl carbonate]
[1]
Conditions	Normal boiling temperature [°C]	mass density [kg/m3]
–	126.17	969.24

CC1CCCCC1 [methylcyclohexane] + CCOC(=O)OCC
[2], x2 = 0
Conditions	mass density [kg/m3]
293.15 K	769.3
298.15 K	764.98
303.15 K	760.65
308.15 K	756.29
313.15 K	751.93

COC(=O)OC [dimethyl carbonate]
[1]
Conditions	Normal boiling temperature [°C]	mass density [kg/m3]
–	90.31	1063.36
